The values that follow come from PubChem BioAssay (NCI).

What all share (test): NCI tumour cell line growth inhibition, 48 h
For test [1], the system named is DU-145 prostate.
The test system of test [2] is HOP-92 NSCLC.
Test [3] concerns NCI-H23 lung.
Test [4] relates to OVCAR-5 ovarian.
The test system of test [5] is SF-268 CNS.
The subject of test [6] is SF-539 CNS.
Test [7] concerns SK-MEL-2 melanoma.
The test system of test [8] is TK-10 renal.
Test [9] relates to UACC-257 melanoma.
Test [10] concerns UACC-62 melanoma.

Values joined by “and” are separate entries in the source; they are usually repeats but may differ in a detail not shown here. Equal entries are not always repeated.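 The compound was tested at five concentrations on cells cultured in 96-well plates, with a 48-hour exposure period. Here, GI50 denotes the concentration required for 50% inhibition of growth. TGI: concentration producing complete growth inhibition.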 Where only a bound is given, the exact number is not on record here.

On to `COc1ccc(-c2c(-c3cc4c(c(OC)c3OC)OCO4)noc2N)cc1`, for which the GI50 is 0.502 µM in [1]; 0.679 µM in [2]; 0.427 µM in [3]; 2.43 µM in [4]; 0.745 µM in test [5]; 0.32 µM in test [6]. Further, the GI50 is 0.235 µM in test [7], 0.343 µM in test [8], 0.458 µM in [9] and 0.534 µM in test [10]. The TGI in test [1] is > 100 µM; in [2], 46.3 µM; in [3] it was > 100 µM; in [4], > 100 µM; in test [5] it was > 95.8 µM; in test [8] it was > 100 µM. Further, the TGI in test [9] and in [10] was > 100 µM each time.
For `CC(C)C[C@H](NC(=O)[C@H](Cc1ccccc1)NC(=O)c1cnccn1)B(O)O`, the GI50 in test [1] is 0.00311 µM; in test [2], 0.0015 µM; in test [3], 0.00175 µM; in test [4] it was 0.0026 µM; in test [5], 0.00288 µM; in [6] it was 0.00119 µM. The GI50 is 0.00172 µM in [7], 0.00164 µM in test [8], 0.00107 µM in test [9] and 0.00149 µM in test [10]. Besides, the TGI in [2] is 0.0196 µM and 0.00723 µM; in [3], 0.183 µM and 0.0197 µM; in test [4], 0.0667 µM and 0.0312 µM and < 0.0499 µM; in test [6], < 0.01 µM and 0.00271 µM; in test [7] it was < 0.0223 µM and 0.0101 µM; in test [8] it was < 0.0693 µM and 0.0129 µM. Besides, the TGI was 0.00349 µM in [9]; < 0.0168 µM and 0.00498 µM in test [10].
For the compound `CCCCCCCCCCCCCCCCSS(C)(=O)=O`, the TGI in test [1] was > 100 µM; in test [2], 37.9 µM; in [3] it was > 75.8 µM; in test [4] it was > 100 µM; in [5], > 35.9 µM; in test [6], > 56.4 µM. Besides, the TGI in test [7] is > 42.4 µM; in [8], 52.9 µM; in test [9] it was > 93.5 µM; in [10], > 57.5 µM.
Regarding `COc1ccc2c(c1)O/C(=C\c1ccc([N+](=O)[O-])o1)C2=O`, the GI50 in test [1] was 0.775 µM; in test [2] it was 1.95 µM; in test [3], 1.99 µM; in test [4] it was 2.27 µM; in [5] it was 2 µM; in [6], 1.6 µM. Further, the GI50 in test [7] is 2.13 µM; in test [8], 2.13 µM; in [9], 1.72 µM; in [10] it was 1.59 µM. Moreover, the TGI in test [1] was found to be 7.94 µM; in test [2] it was 5.62 µM; in test [3], 5.81 µM; in test [4], 5.78 µM; in [5] it was 16.8 µM; in [6], 4.14 µM. The TGI was 4.01 µM in [7], 9.49 µM in test [8], 3.85 µM in test [9] and 3.54 µM in test [10].
In the case of `COC1=CC(=O)c2c(O)c3c(c(O)c2C1=O)OC1(Oc2c(cc4cc(C)oc(=O)c4c2O)CC1O)C3O` (stereo unspecified), the TGI in test [1], in [2], in test [3], in [4], in [5] and in [6] was > 100 µM throughout. The TGI in test [7], in [8], in test [9] and in test [10] was > 100 µM each time.
Turning to `CC[C@]12C=CCN3CC[C@@]4(c5ccc(OC)cc5N(C)[C@H]4[C@@](O)(C(=O)OC)[C@@H]1OC(=O)CCCC[P+](c1ccccc1)(c1ccccc1)c1ccccc1)[C@@H]32`, the GI50 in test [1] was 0.875 µM; in [2], 0.238 µM; in test [3], 1.07 µM; in test [4], 1.82 µM; in test [5], 0.644 µM; in test [6] it was 0.993 µM. For the same compound, the GI50 in test [7] was 0.478 µM; in test [8] it was 2.79 µM; in test [9], 0.279 µM; in test [10], 0.374 µM. For the same compound, the TGI in [1] was 13.2 µM; in test [2], 1.35 µM; in test [3], 10.5 µM; in test [4], 12.5 µM; in [5] it was 3.98 µM; in test [6], 12.1 µM. The TGI came to 1.45 µM in [7], 9.66 µM in [8], 1.09 µM in test [9] and 1.54 µM in test [10].
On to `COc1ccc(NC(=O)COc2ccccc2)c(C(N)=O)c1`, for which the GI50 is 2.31 µM in test [1]; 2.87 µM in test [2]; 2.61 µM in [3]; 7.14 µM in test [4]; 4.25 µM in [5]; 0.506 µM in [6]. In addition, the GI50 in test [7] is 0.729 µM; in [8] it was 18.3 µM; in test [9], > 100 µM; in test [10] it was 1.18 µM. In addition, the TGI in [1] was > 62.2 µM; in test [2] it was > 78 µM; in [3] it was 35.5 µM; in test [4], > 100 µM; in test [5] it was > 75.1 µM; in test [6], 4.01 µM. For the same compound, the TGI in [7] is > 83.2 µM; in test [8], > 100 µM; in test [9], > 100 µM; in [10] it was > 81.2 µM.
Regarding `O=C(NCCN1CCOCC1)Nc1nc2ccc(Sc3nnc4ccc(-c5ccc(F)cc5)nn34)cc2s1`, the GI50 was > 100 µM in [1]; 3.32 µM in test [2]; > 100 µM in test [3]; > 39 µM in test [4]; > 23.3 µM in test [5]; 2.94 µM in test [6]. Besides, the GI50 was > 44.3 µM in test [7], > 100 µM in [8], 7.94 µM in test [9] and 6.16 µM in test [10]. The TGI in test [1], in test [2], in [3], in [4], in test [5] and in [6] was > 100 µM throughout. Besides, the TGI in test [7] was > 91.2 µM; in test [8], > 100 µM; in test [9], > 21.2 µM; in [10], 21.4 µM.
For `COc1ccc(/C=C(/C(=O)N2CCN(c3ccc(C)cc3)CC2)c2cc(OC)c(OC)c(OC)c2)cc1N`, the GI50 in [1] is 0.307 µM; in test [2], 0.205 µM; in test [3], 0.438 µM; in test [4], 0.715 µM; in [5] it was 0.43 µM; in test [6] it was 0.176 µM. The GI50 was 0.64 µM in test [7], 4.77 µM in test [8], > 87.3 µM in test [9] and 0.362 µM in test [10]. Moreover, the TGI was > 76.3 µM in [1]; > 100 µM in test [2]; > 100 µM in [3]; > 100 µM in test [4]; > 100 µM in test [5]; 0.717 µM in test [6]. The TGI in [7], in test [8], in test [9] and in test [10] was > 100 µM throughout.
As for `N=C(N)c1ccc(CS(=O)(=O)F)cc1`, the GI50 in [1], in [2], in test [3], in test [4], in test [5] and in test [6] was > 100 µM throughout. The GI50 in test [7], in test [8], in test [9] and in [10] was > 100 µM throughout. Further, the TGI in [1], in test [2], in test [3], in test [4], in [5] and in test [6] was > 100 µM each time. Further, the TGI in test [7], in test [8], in test [9] and in test [10] was > 100 µM throughout.
As to `CS(=O)(=O)OCCCCOS(C)(=O)=O`, the GI50 is 774 µM in [1]; 570 µM in [2]; 685 µM in test [3]; > 698 µM in test [4]; 424 µM in test [5]; 437 µM in test [6]. In addition, the GI50 is > 1000 µM in test [7], > 464 µM in test [8], 571 µM in [9] and 472 µM in test [10]. Moreover, the TGI is 250 µM and > 1000 µM in [1]; 250 µM and > 948 µM in test [2]; 249 µM and > 1000 µM in test [3]; > 1000 µM in test [4]; 223 µM and > 1000 µM in [5]; 250 µM and > 1000 µM in test [6]. Further, the TGI is 250 µM and > 1000 µM in test [7]; > 464 µM in test [8]; 230 µM and > 1000 µM in [9]; 250 µM and > 1000 µM in test [10].
Take `O=C1c2cccc3c([N+](=O)[O-])ccc(c23)C(=O)N1CCCCl`: the GI50 is 4.56 µM in [1]; > 10 µM in [2]; 5.07 µM in test [3]; > 10 µM in [4]; 3.17 µM in [5]; > 10 µM in test [6]. Moreover, the GI50 in [7] was > 10 µM; in test [8], > 10 µM; in [9], 7.14 µM; in [10], 4.48 µM. The TGI in test [1], in [2], in test [3], in test [4], in test [5] and in test [6] was > 10 µM each time. Further, the TGI in test [7], in test [8], in test [9] and in test [10] was > 10 µM throughout.
As to `CC(C)(C)n1nc(C2CC2)cc1NC(=O)Nc1ccc(Cl)cc1`, the TGI in test [1], in test [2], in test [3], in test [4], in test [5] and in [6] was > 100 µM throughout. The TGI in test [7], in test [8], in test [9] and in [10] was > 100 µM throughout.
Consider `COc1ccccc1CN=C1NC(=O)/C(=C/c2ccc3ncccc3c2)S1`, for which the GI50 in test [1] was 11 µM; in test [2] it was 6.24 µM; in test [3], 8.65 µM; in test [4], 16.3 µM; in test [5], 7.89 µM; in [6], 5.28 µM. In addition, the GI50 in [7] was 10.4 µM; in test [8], 7.97 µM; in test [9], > 25 µM; in [10], 8.61 µM. In addition, the TGI is > 25 µM in test [1]; 22 µM in test [2]; > 25 µM in [3]; > 25 µM in test [4]; > 25 µM in test [5]; > 20.3 µM in [6]. Besides, the TGI in test [7], in [8], in [9] and in test [10] was > 25 µM throughout.
Consider `COc1ccc(-c2cnc(SCC(=O)c3c(C)n(C)n(-c4ccccc4)c3=O)n2-c2ccc(OC)cc2)cc1`, for which the GI50 was 9.13 µM in test [1]; > 50 µM in test [2]; > 50 µM in test [3]; > 50 µM in test [4]; > 50 µM in test [5]; > 50 µM in test [6]. Further, the GI50 in test [7], in [8], in test [9] and in test [10] was > 50 µM in each case. Moreover, the TGI in test [1], in test [2], in test [3], in test [4], in test [5] and in test [6] was > 50 µM throughout. In addition, the TGI in [7], in test [8], in test [9] and in test [10] was > 50 µM each time.
As for `O=C(/C=C/c1ccccc1)Nc1ncc(Cc2ccccc2)s1`, the GI50 in test [1] was 0.396 µM; in [2], 4.72 µM; in test [3] it was 0.562 µM; in test [4] it was 0.469 µM; in [5] it was 0.963 µM; in test [6], 0.206 µM. For the same compound, the GI50 in test [7] is 0.479 µM; in [8], 1.34 µM; in test [9] it was 10.7 µM; in test [10], 0.125 µM. For the same compound, the TGI was > 100 µM in test [1]; > 84.8 µM in [2]; > 49.1 µM in test [3]; 35.8 µM in test [4]; > 100 µM in test [5]; 0.732 µM in test [6]. In addition, the TGI in [7] is > 69.1 µM; in test [8], > 46.4 µM; in test [9], > 100 µM; in [10] it was 4.28 µM.
